# Data taken from patent US20120121540A1 (priority 2007, published 2012).
# Assay: HCV replicon assay (luciferase reporter, ET cell line)
# Type: cell-based
# Settings: Hepatitis C virus, HCV replicon luciferase activity in ET cells
# Procedure, shortened: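 ET cells carry a stable luciferase-ubiquitin-neo/NS3-5B subgenomic HCV replicon with adaptive mutations. Compounds (0.1 nM to […], 0.5% DMSO) were added 24 h after plating, and luciferase was read 48-72 h later. EC50 came from 10-point 2-fold dilutions fitted to a Hill equation; TC50 was measured in parallel by WST-1.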
row,SMILES,inhibition at 10 µM
1,"O=C(c1nc2c(C(F)(F)F)cc(-c3ccoc3)cn2c1Cl)N1CCC(c2nccs2)C1 (stereo not shown) [Compound 430, (3-Chloro-6-furan-3-yl-8-trifluoromethyl-imidazo[1,2-a]pyridin-2-yl)-(3-thiazol-2-yl-pyrrolidin-1-yl)-methanone]",99.4%
2,"O=C(c1nc2c(C(F)(F)F)cc(-c3ccoc3)cn2c1Cl)N1CCC(C2CCOC2)C1 (stereo not shown) [Compound 431, (3-Chloro-6-furan-3-yl-8-trifluoromethyl-imidazo[1,2-a]pyridin-2-yl)-[3-(tetrahydro-furan-3-yl)-pyrrolidin-1-yl]-methanone]",95.1%
3,"O=C(c1nc2c(C(F)(F)F)cc(-c3cn[nH]c3)cn2c1Br)N1CCC(c2nccs2)C1 (stereo not shown) [Compound 432, [3-Bromo-6-(1H-pyrazol-4-yl)-8-trifluoromethyl-imidazo[1,2-a]pyridin-2-yl]-(3-thiazol-2-yl-pyrrolidin-1-yl)-methanone]",96.5%
4,"O=C(c1nc2c(C(F)(F)F)cc(-c3cn[nH]c3)cn2c1Br)N1CC=C(c2nccs2)C1 [Compound 433, [3-Bromo-6-(1H-pyrazol-4-yl)-8-trifluoromethyl-imidazo[1,2-a]pyridin-2-yl]-(3-thiazol-2-yl-2,5-dihydro-pyrrol-1-yl)-methanone]",99.2%
5,"O=C(c1nc2c(C(F)(F)F)cc(-c3cn[nH]c3)cn2c1Br)N1CC=C(c2ccsc2)C1 [Compound 435, [3-Bromo-6-(1H-pyrazol-4-yl)-8-trifluoromethyl-imidazo[1,2-a]pyridin-2-yl]-(3-thiophen-3-yl-2,5-dihydro-pyrrol-1-yl)-methanone]",98.8%
6,"O=C(c1nc2c(C(F)(F)F)cc(-c3cn[nH]c3)cn2c1Br)N1CC=C(c2ccoc2)C1 [Compound 436, [3-Bromo-6-(1H-pyrazol-4-yl)-8-trifluoromethyl-imidazo[1,2-a]pyridin-2-yl]-(3-furan-3-yl-2,5-dihydro-pyrrol-1-yl)-methanone]",98%
7,"O=C(c1nc2c(C(F)(F)F)cc(-c3cn[nH]c3)cn2c1Br)N1CC=C(c2cccc(F)c2)C1 [Compound 437, [3-Bromo-6-(1H-pyrazol-4-yl)-8-trifluoromethyl-imidazo[1,2-a]pyridin-2-yl]-[3-(3-fluoro-phenyl)-2,5-dihydro-pyrrol-1-yl]-methanone]",96.9%
8,"O=C(c1nc2c(C(F)(F)F)cc(-c3cn[nH]c3)cn2c1Br)N1CC=C(c2ccc(F)cc2)C1 [Compound 438, [3-Bromo-6-(1H-pyrazol-4-yl)-8-trifluoromethyl-imidazo[1,2-a]pyridin-2-yl]-[3-(4-fluoro-phenyl)-2,5-dihydro-pyrrol-1-yl]-methanone]",97.8%
9,"O=C(c1nc2c(C(F)(F)F)cc(-c3cn[nH]c3)cn2c1Cl)N1CC=C(c2nccs2)C1 [Compound 439, [3-Chloro-6-(1H-pyrazol-4-yl)-8-trifluoromethyl-imidazo[1,2-a]pyridin-2-yl]-(3-thiazol-2-yl-2,5-dihydro-pyrrol-1-yl)-methanone]",99.2%
10,"O=C(c1cn2cc(-c3cn[nH]c3)cc(C(F)(F)F)c2n1)N1CC=C(c2nccs2)C1 [Compound 440, [6-(1H-Pyrazol-4-yl)-8-trifluoromethyl-imidazo[1,2-a]pyridin-2-yl]-(3-thiazol-2-yl-2,5-dihydro-pyrrol-1-yl)-methanone]",98.9%
11,"O=C(c1nc2c(C(F)(F)F)cc(-c3cn[nH]c3)cn2c1Cl)N1CCC(c2cccs2)C1 (stereo not shown) [Compound 441, [3-Chloro-6-(1H-pyrazol-4-yl)-8-trifluoromethyl-imidazo[1,2-a]pyridin-2-yl]-(3-thiophen-2-yl-pyrrolidin-1-yl)-methanone]",97.6%
12,"O=C(c1nc2c(C(F)(F)F)cc(-c3cn[nH]c3)cn2c1Br)N1CC=C(c2cccs2)C1 [Compound 442, [3-Bromo-6-(1H-pyrazol-4-yl)-8-trifluoromethyl-imidazo[1,2-a]pyridine-2-yl]-(3-thiophen-2-yl-2.5-dihydro-pyrrol-1-yl)-methanone]",99.5%
13,"O=C(c1nc2c(C(F)(F)F)cc(-c3cn[nH]c3)cn2c1Cl)N1CC=C(c2cccs2)C1 [Compound 443, [3-Chloro-6-(1H-pyrozol-4-yl)-8-(trifluoromethyl)imidazo[1,2-a]pyridine-2-yl][3-(thiophen-2-yl)-2,5-dihydro-1H-pyrrol-1-yl]methanone]",99.3%
14,"O=C(c1nc2c(C(F)(F)F)cc(-c3cn[nH]c3)cn2c1Cl)N1CC=C(c2ccco2)C1 [Compound 444, [3-Chloro-6-(1H-pyrazol-4-yl)-8-(trifluoromethyl)imidazo[1,2-a]pyridin-2-yl][3-(furan-2-yl)-2,5-dihydro-1H-pyrrol-1-yl]methanone]",98%
15,"O=C(c1nc2c(C(F)(F)F)cc(-c3cn[nH]c3)cn2c1Cl)N1CC=C(c2cscn2)C1 [Compound 445, [3-Chloro-6-(1H-pyrazol-4-yl)-8-(trifluoromethyl)imidazol[1,2-a]pyridine-2-yl][3-(1,3-thiazol-4-yl)-2,5-dihydro-1H-pyrrol-1-yl]methanone]",93.9%
16,"O=C(c1nc2c(C(F)(F)F)cc(-c3ccoc3)cn2c1Br)N1CCC(c2cccc(F)c2)C1 (stereo not shown) [Compound 446, (3-Bromo-6-furan-3-yl-8-trifluoromethyl-imidazo[1,2-a]pyridin-2-yl)-(3-(3-fluoro-phenyl)-pyrrolidin-1-yl)-methanone]",95.8%

row,SMILES,inhibition at 10 µM
1,"O=C(c1nc2c(C(F)(F)F)cc(-c3cn[nH]c3)cn2c1Br)N1CCC(c2cccc(F)c2)C1 (stereo not shown) [Compound 447, (3-Bromo-6-(1H-pyrazol-4-yl)-8-trifluoromethyl-imidazo[1,2-a]pyridin-2-yl)-(3-(3-fluoro-phenyl)-pyrrolidin-1-yl)-methanone]",92.8%
2,O=C(c1nc2c(C(F)(F)F)cc(-c3ccoc3)cn2c1Br)N1CCC(c2ccccc2F)C1 (stereo not shown) [Compound 448],99.2%
3,"O=C(c1nc2c(C(F)(F)F)cc(-c3cn[nH]c3)cn2c1Br)N1CCC(c2ccccc2F)C1 (stereo not shown) [Compound 449, (3-Bromo-6-(1H-pyrazol-4-yl)-8-trifluoromethyl-imidazo[1,2-a]pyridin-2-yl)-(3-(2-fluoro-phenyl)-pyrrolidin-1-yl)-methanone]",97.4%
4,"N#Cc1cccc(C2CCN(C(=O)c3nc4c(C(F)(F)F)cc(-c5ccoc5)cn4c3Cl)C2)c1 (stereo not shown) [Compound 450, 3-(1-(3-Chloro-6-furan-3-yl-8-trifluoromethyl-imidazo[1,2-a]pyridine-2-carbonyl)-pyrrolidin-3-yl)-benzonitrile]",82.5%
5,"COc1cccc(C2CCN(C(=O)c3nc4c(C(F)(F)F)cc(-c5ccoc5)cn4c3Cl)C2)c1 (stereo not shown) [Compound 451, (3-Chloro-6-furan-3-yl-8-trifluoromethyl-imidaz [1,2-a]pyridin-2-yl)-[3-(3-methoxy-phenyl)-pyrrolidin-1-yl]-methanone]",73.5%
6,"COC(=O)c1cccc(C2CCN(C(=O)c3nc4c(C(F)(F)F)cc(-c5ccoc5)cn4c3Cl)C2)c1 (stereo not shown) [Compound 452, 3-(1-(3-Chloro-6-furan-3-yl-8-trifluoromethyl-imidazo[1,2-a]pyridine-2-carbonyl)-pyrrolidin-3-yl)-benzoic acid methyl ester]",87.6%
7,"O=C(c1nc2c(C(F)(F)F)cc(-c3ccoc3)cn2c1Cl)N1CCC(c2cccnc2)C1 (stereo not shown) [Compound 453, (3-Chloro-6-furan-3-yl-8-trifluoromethyl-imidazo[1,2-a]pyridin-2-yl)-(3-pyridin-3-yl-pyrrolidin-1-yl)-methanone]",97.6%
8,"O=C(c1nc2c(C(F)(F)F)cc(-c3ccoc3)cn2c1Cl)N1CCC(c2ccncc2)C1 (stereo not shown) [Compound 454, (3-Chloro-6-furan-3-yl-8-trifluoromethyl-imidazo[1,2-a]pyridin-2-yl)-(3-pyridin-4-yl-pyrrolidin-1-yl)-methanone]",96.1%
9,"O=C(c1nc2c(C(F)(F)F)cc(-c3ccoc3)cn2c1Cl)N1CCC(c2cccc(Cl)c2)C1 (stereo not shown) [Compound 460, (3-Chloro-6-furan-3-yl-8-trifluoromethyl-imidazo[1,2-a]pyridin-2-yl)-[3-(3-chloro-phenyl)-pyrrolidin-1-yl]-methanone]",88%
10,"O=C(c1nc2c(C(F)(F)F)cc(-c3cn[nH]c3)cn2c1Br)N1CCC(c2ccccc2)C1 (stereo not shown) [Compound 461, (3-Bromo-6-(1H-pyrazol-4-yl)-8-trifluoromethyl-imidazo[1,2-a]pyridin-2-yl)-(3-phenyl-pyrrolidin-1-yl)-methanone]",94.3%
11,"Nc1cccc(C2CCN(C(=O)c3nc4c(C(F)(F)F)cc(-c5ccoc5)cn4c3Cl)C2)c1 (stereo not shown) [Compound 462, [3-(3-Amino-phenyl)-pyrrolidin-1-yl]-(3-chloro-6-furan-3-yl-8-trifluoromethyl-imidaz [1,2-a]pyridin-2-yl)-methanone]",86.5%
12,"COc1ccccc1C1CCN(C(=O)c2nc3c(C(F)(F)F)cc(-c4ccoc4)cn3c2Cl)C1 (stereo not shown) [Compound 463, (3-Chloro-6-furan-3-yl-8-trifluoromethyl-imidaz [1,2-a]pyridin-2-yl)-[3-(2-methoxy-phenyl)-pyrrolidin-1-yl]-methanone]",80.6%
13,"O=C(c1nc2c(C(F)(F)F)cc(-c3cn[nH]c3)cn2c1Cl)N1CCC(c2ccccc2)C1 (stereo not shown) [Compound 464, [3-Chloro-6-(1H-pyrazol-4-yl)-8-trifluoromethyl-imidazo[1,2-a]pyridin-2-yl]-(3-phenyl-pyrrolidin-1-yl)-methanone]",93.7%
14,"O=C(c1nc2c(C(F)(F)F)cc(-c3cn[nH]c3)cn2c1Cl)N1CC[C@@H](c2ccccc2)C1 [Compound 465, [3-Chloro-6-(1H-pyrazol-4-yl)-8-trifluoromethyl-imidazo[1,2-a]pyridin-2-yl]-(3-(S)-phenyl-pyrrolidin-1-yl)-methanone]",97.9%
15,"O=C(c1nc2c(C(F)(F)F)cc(-c3cn[nH]c3)cn2c1Cl)N1CC[C@H](c2ccccc2)C1 [Compound 466, [3-Chloro-6-(1H-pyrazol-4-yl)-8-trifluoromethyl-imidazo[1,2-a]pyridin-2-yl]-(3-(R)-phenyl-pyrrolidin-1-yl)-methanone]",90.4%
